Data reported in patent US20240132492A1, “PYRIDOPYRIMIDINE-BASED COMPOUND AND APPLICATION THEREOF” (JINAN UNIVERSITY, priority 2021, published 2024).

Experiments:
Format in all cases: cell-based
H1975 = assay: CCK-8 tumor cell proliferation, H1975; conditions: 72 hours
Description: (§1) Tumor cells (see Table 2 to Table 5) were inoculated in 96-well plates in complete culture medium (2000-3000 cells/well). After overnight incubation, the compounds with different concentrations (0.000508 μM-10 μM) were used to treat the cells separately for 72 hours. CCK-8 (Cell Counting Kit 8, Dojindo Laboratories, Kumamoto, Japan) experiment was used to evaluate cell proliferation. GraphPad Prism 5.0 software (La Jolla, CA) was used to calculate the half-maximal inhibitory concentration (IC50) values by fitting the concentration response curve. Each IC50 value was represented as an average value±SD.

PC-9 = assay: CCK-8 tumor cell proliferation, PC-9; conditions: Homo sapiens, PC-9 cells, 72 hours
Description: as §1

HCC827 = assay: CCK-8 tumor cell proliferation, HCC827; conditions: Homo sapiens, HCC827 cells, 72 hours
Description: as §1

H1975OR = assay: CCK-8 tumor cell proliferation, H1975OR; conditions: H1975OR cells (Osimertinib resistant), 72 hours
Description: (§2) Cell line: Non-small cell lung cancer H1975-OR cell line, which is an Osimertinib resistant H1975 cell line, and could be obtained through low dose gradual addition culture. Specific method: H1975 cells were spread in a 10 cm culture dish at a convergence rate of 60-70%, added 50 nM of Osimertinib to the culture medium. After the cell state stabilized, the concentration of Osimertinib was gradually double to 3 μM.
as §1

H1299 = assay: CCK-8 tumor cell proliferation, H1299; conditions: Homo sapiens, NCI-H1299, H1299 cells, 72 hours
Description: as §1

A431 = assay: CCK-8 tumor cell proliferation, A431; conditions: Homo sapiens, A-431, A431 cells, 72 hours
Description: as §1

AKT3 = AKT3 (Homo sapiens, UniProt Q9Y243); assay: Western Blot, degradation of AKT3 protein in H1975-OR cells; set-up: endogenous in cells; host or cells: H1975-OR (osimertinib-resistant H1975); conditions: 24 hours, maximum degradation rate; for Dmax at 1 µM: 1000 nM
Chain of AKT3 (Q9Y243 whole entry): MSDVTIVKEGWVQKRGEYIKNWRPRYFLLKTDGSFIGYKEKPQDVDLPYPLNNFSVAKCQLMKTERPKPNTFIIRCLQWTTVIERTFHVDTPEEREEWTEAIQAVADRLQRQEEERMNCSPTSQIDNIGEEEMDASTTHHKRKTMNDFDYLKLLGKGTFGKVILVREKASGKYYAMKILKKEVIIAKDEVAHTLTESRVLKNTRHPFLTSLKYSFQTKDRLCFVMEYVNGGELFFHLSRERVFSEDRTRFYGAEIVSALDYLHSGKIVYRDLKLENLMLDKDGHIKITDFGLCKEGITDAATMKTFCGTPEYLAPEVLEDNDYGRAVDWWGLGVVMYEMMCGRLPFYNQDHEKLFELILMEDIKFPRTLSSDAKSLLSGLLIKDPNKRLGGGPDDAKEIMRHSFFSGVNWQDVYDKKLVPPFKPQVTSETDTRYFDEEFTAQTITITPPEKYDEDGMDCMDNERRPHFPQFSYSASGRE
Description: as §2
(§3) Conventional Western Blot (immunoblotting) was used for detection, as follows: a certain number of H1975-OR cells were planted on a 96 well plate, adherent cultured in an incubator overnight, and added a certain concentration of compound to act for 24 hours. 1×SDS lysis buffer with protease and phosphatase inhibitors was used to lyse cells. Cell lysates were separated by SDS-PAGE and transferred to PVDF membrane. Then, at room temperature, the PCDF membrane was taken out and immersed in a sealing solution (5% BSA TBS solution containing 0.5% Tween-20) for sealing treatment for 1 hour, and then incubated with a specific primary antibody at 4° C. overnight. The imprints were washed with TBST and incubated with horseradish peroxidase (HRP) labeled secondary antibodies at room temperature for 2 hours. Finally, ECL plus fluorescence detection reagent (Thermo Scientific, Waltham, MA) was used for protein development, and the Amersham Imager 600 system (GE, America) was used for photography. The detection results were processed using ImageJ software to obtain the grayscale value G (Density).

AKT1 = biological target: T1, AKT1 (Homo sapiens, UniProt P31749); assay: Western Blot, degradation of AKT1 protein in H1975-OR cells; conditions: 24 hours, maximum degradation rate; for Dmax at 1 µM: 1000 nM
T1 construct: AKT1, AKT2, and AKT3 proteins in H1975-OR cells; endogenous in cells; host or cells: H1975-OR (osimertinib-resistant H1975)
T1 sequence (P31749 whole entry): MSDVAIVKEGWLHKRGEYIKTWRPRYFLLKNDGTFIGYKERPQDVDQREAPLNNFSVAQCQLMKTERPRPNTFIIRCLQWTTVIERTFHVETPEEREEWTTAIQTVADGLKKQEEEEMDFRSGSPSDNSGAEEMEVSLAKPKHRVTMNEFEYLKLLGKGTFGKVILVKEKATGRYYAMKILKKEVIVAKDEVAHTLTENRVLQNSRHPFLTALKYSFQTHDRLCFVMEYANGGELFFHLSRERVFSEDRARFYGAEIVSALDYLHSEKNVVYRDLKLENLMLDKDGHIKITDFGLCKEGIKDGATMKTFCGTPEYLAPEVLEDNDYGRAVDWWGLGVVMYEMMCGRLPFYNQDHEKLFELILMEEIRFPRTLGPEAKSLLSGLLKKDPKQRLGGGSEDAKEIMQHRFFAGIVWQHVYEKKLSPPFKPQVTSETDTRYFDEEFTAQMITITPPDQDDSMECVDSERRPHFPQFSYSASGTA
Description: as §2, §3

AKT2 = biological target: T2, AKT2 (Homo sapiens, UniProt P31751); assay: Western Blot, degradation of AKT2 protein in H1975-OR cells; conditions: 24 hours, maximum degradation rate; for Dmax at 1 µM: 1000 nM
T2 construct: AKT1, AKT2, and AKT3 proteins in H1975-OR cells; endogenous in cells; host or cells: H1975-OR (osimertinib-resistant H1975)
T2 sequence (P31751 whole entry): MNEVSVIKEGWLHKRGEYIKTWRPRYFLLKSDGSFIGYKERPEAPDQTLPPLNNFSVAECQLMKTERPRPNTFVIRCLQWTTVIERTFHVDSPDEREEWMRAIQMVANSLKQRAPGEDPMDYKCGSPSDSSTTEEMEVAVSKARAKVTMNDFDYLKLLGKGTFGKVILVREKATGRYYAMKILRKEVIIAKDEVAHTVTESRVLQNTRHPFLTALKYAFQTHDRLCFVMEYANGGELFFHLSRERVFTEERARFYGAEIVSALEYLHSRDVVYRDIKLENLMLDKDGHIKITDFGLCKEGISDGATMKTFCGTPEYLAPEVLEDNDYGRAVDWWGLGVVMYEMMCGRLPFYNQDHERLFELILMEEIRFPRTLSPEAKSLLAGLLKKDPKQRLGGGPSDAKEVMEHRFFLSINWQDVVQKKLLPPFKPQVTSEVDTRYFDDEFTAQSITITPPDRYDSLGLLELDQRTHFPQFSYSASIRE
Description: as §2, §3

[1] = Homo sapiens, NCI-H1975, H1975 cells

| IC50 (H1975; [1]) [µM] | IC50 (PC-9) [µM] | IC50 (HCC827) [µM] | IC50 (H1975OR) [µM] | IC50 (H1299) [µM] | IC50 (A431) [µM] | Dmax at 1 µM (AKT3) [%] | Dmax at 1 µM (AKT1) [%] | Dmax at 1 µM (AKT2) [%] | Molecule | IC50 (H1975; H1975 cells) [µM] | Dmax (%) at 1000 nM AKT3 (AKT3) [%] | Dmax (%) at 1000 nM AKT1 (AKT1) [%] | Dmax (%) at 1000 nM AKT2 (AKT2) [%] |
| --- | --- | --- | --- | --- | --- | --- | --- | --- | --- | --- | --- | --- | --- |
| 6.96 ± 6.04 | > 10 | 10.7 ± 3.88 | 0.216 ± 0.032 | > 10 | 2.29 ± 0.0474 | – | – | – | COc1cc(N2CCN(CCCCCCCCCCCCNC(=O)CC34CC5CC(CC(C5)C3)C4)CC2)ccc1Nc1ncc2c(C)cc(=O)n(-c3cccc(NC(=O)C4CCCCC4)c3)c2n1 [ZX-HYT-13, N-(3-(2-((4-(4-(12-(2-(((3R, 5R, 7R)-adamantan-1-yl)acetylamino)dodecyl)piperazin-1-yl)-2-methoxyphenyl)amino)-5-methyl-7-oxypyridino [2,3-d]pyrimidin-8 (7H)-yl)phenyl)cyclohexane formamide] | – | – | – | – |
| – | 0.295 | – | – | – | 0.106 | – | – | – | COc1cc(N2CCN(CCCCCCCCCCCCNC(=O)CC34CC5CC(CC(C5)C3)C4)CC2)ccc1Nc1ncc2c(C)cc(=O)n([C@H]3CC[C@@H](NC(=O)C4CC4)C3)c2n1 [ZX-HYT-20, N-((1R,3S)-3-(2-((4-(4-(12-(2-((3R, 5R, 7R)-adamantan-1-yl)acetylamino)dodecyl)piperazin-1-yl)-2-methoxyphenyl)amino)-5-methyl-7-oxypyridino [2,3-d]pyrimidin-8 (7H)-yl)cyclopentyl) cyclopropane formamide] | – | – | – | – |
| 2.67 ± 0.471 | – | 1.4 ± 0.248 | 0.734 ± 0.00594 | – | 0.212 ± 0.0653 | 51.5 | 0 | 0 | COc1cc(N2CCN(CCCCCCCCCCCCNC(=O)CC34CC5CC(CC(C5)C3)C4)CC2)ccc1Nc1ncc2c(C)cc(=O)n(C3CCCC3)c2n1 [ZX-HYT-24, 2-(((3R, 5R, 7R)-adamantan-1-yl)-N-(12-(4-(4-(8-cyclopentyl-5-methyl-7-oxy-7,8-dihydropyridinyl [2,3-d]pyrimidin-2-yl)amino)-3-methoxyphenyl)piperazin-1-yl)dodecyl) acetamide] | – | – | – | – |
| 0.257 ± 0.0423 | – | – | 0.172 ± 0.0204 | – | – | 37.9 | 57.5 | 30.5 | COc1cc(N2CCN(CCCCCCCCCCCCNC(=O)CC34CC5CC(CC(C5)C3)C4)CC2)ccc1Nc1ncc2c(C)cc(=O)n(-c3cccc(N(C)C)c3)c2n1 [ZX-HYT-43, 2-((3R, 5R, 7R)-adamantan-1-yl)-N-(12-(4-(4-((8-(3-(dimethylamino)phenyl)-5-methyl-7-oxy-7,8-dihydropyridino [2,3-d]pyrimidin-2-yl)amino)-3-methoxyphenyl)piperazin-1-yl)dodecyl) acetamide] | – | – | – | – |
| 5.39 ± 0.293 | – | – | 8.09 ± 0.432 | – | – | 40.1 | 22.4 | 23.6 | COc1cc(N2CCN(CCCCCCCCCCCCNC(=O)CC34CC5CC(CC(C5)C3)C4)CC2)ccc1Nc1ncc2c(C)cc(=O)n(-c3cccc(NCC4CNC4)c3)c2n1 [ZX-HYT-44, 2-((3R, 5R, 7R)-adamantan-1-yl)-N-(12-(4-(4-((8-(3-((azacyclobutane-3-ylmethyl)amino)phenyl)-5-methyl-7-oxy-7,8-dihydropyridino [2,3-d]pyrimidin-2-yl)amino)-3-methoxyphenyl)piperazin-1-yl)dodecanyl) acetamide] | – | – | – | – |
| 2.4 ± 0.226 | – | – | 2.35 ± 0.11 | – | – | 29.1 | 32.8 | 17.6 | COc1cc(N2CCN(CCCCCCCCCCCCNC(=O)CC34CC5CC(CC(C5)C3)C4)CC2)ccc1Nc1ncc2c(C)cc(=O)n(-c3cccc(NC4CNC4)c3)c2n1 [ZX-HYT-45, 2-((3R, 5R, 7R)-adamantan-1-yl)-N-(12-(4-(4-((8-(3-(azacyclobutane-3-ylamino)phenyl)-5-methyl-7-oxy-7,8-dihydropyridino [2,3-d]pyrimidin-2-yl)amino)-3-methoxyphenyl)piperazin-1-yl)dodecyl) acetamide] | – | – | – | – |
| 0.0365 ± 0.0012 | – | – | 0.0224 ± 0.0127 | – | – | 67.5 | 0 | 0 | COc1cc(N2CCN(CCCCCCCCNC(=O)CC34CC5CC(CC(C5)C3)C4)CC2)ccc1Nc1ncc2c(C)cc(=O)n(-c3cccc(NC(=O)C4CC4)c3)c2n1 [ZX-HYT-47, N-(3-(2-((4-(4-(8-(2-((3R, 5R, 7R)-adamantan-1-yl)acetylamino)octyl)piperazin-1-yl)-2-methoxyphenyl))amino)-5-methyl-7-oxypyridino [2,3-d]pyrimidin-8 (7H)-yl) phenyl) cyclopropane formamide] | – | – | – | – |
| 0.187 ± 0.0357 | – | – | 0.105 ± 0.052 | – | – | 60.6 | 0 | 34.2 | COc1cc(N2CCN(CCCCCCCCNC(=O)CC34CC5CC(CC(C5)C3)C4)CC2)ccc1Nc1ncc2c(C)cc(=O)n(-c3cccc(NC(=O)C(C)(C)C)c3)c2n1 [ZX-HYT-48, N-(3-(2-((4-(4-(8-(2-((3R, 5R, 7R)-adamantan-1-yl)acetylamino)octyl)piperazin-1-yl)-2-methoxyphenyl))amino)-5-methyl-7-oxypyridino [2,3-d]pyrimidin-8 (7H)-yl) phenyl) neopentanamide] | – | – | – | – |
| 0.0958 ± 0.0126 | – | – | 0.0346 | – | – | 61.6 | 0 | 26.1 | CCC(=O)Nc1cccc(-n2c(=O)cc(C)c3cnc(Nc4ccc(N5CCN(CCCCCCCCNC(=O)CC67CC8CC(CC(C8)C6)C7)CC5)cc4OC)nc32)c1 [ZX-HYT-49, N-(3-(2-((4-(4-(8-(2-((3R, 5R, 7R)-adamantan-1-yl)acetylamino)octyl)piperazin-1-yl)-2-methoxyphenyl))amino)-5-methyl-7-oxypyridino [2,3-d]pyrimidin-8 (7H)-yl) phenyl) propionamide] | – | – | – | – |
| 0.121 ± 0.0449 | – | – | 0.0939 ± 0.004 | – | – | 38.9 | 30.3 | 24.7 | COc1cc(N2CCN(CCCCCCCCNC(=O)C[C@]34CC5C[C@@](C)(C[C@@](C)(C5)C3)C4)CC2)ccc1Nc1ncc2c(C)cc(=O)n(-c3cccc(NC(=O)C4CC4)c3)c2n1 [ZX-HYT-59, N-(3-(2-((4-(4-(8-(2-((1S, 3R, 5S, 7R)-3,5-dimethyladamantan-1-yl)acetamido)octyl)piperazin-1-yl)-2-methoxyphenyl)amino)-5-methyl-7-oxypyridino [2,3-d]pyrimidin-8 (7H)-yl)phenyl) cyclopropanilamide] | – | – | – | – |
| 0.135 ± 0.0948 | – | – | 0.107 ± 0.0194 | – | – | 18.9 | 13 | 0 | COc1cc(N2CCN(CCCCCCCCNC(=O)C3C[C@H]4C=C[C@@H]3C4)CC2)ccc1Nc1ncc2c(C)cc(=O)n(-c3cccc(NC(=O)C4CC4)c3)c2n1 (stereo partly shown) [ZX-HYT-60] | – | – | – | – |
| 0.0738 ± 0.0456 | – | – | 0.103 ± 0.0592 | – | – | 15.9 | 14.2 | 31.5 | COc1cc(N2CCN(CCCCCCCCNC(=O)C3C[C@H]4CC[C@@H]3C4)CC2)ccc1Nc1ncc2c(C)cc(=O)n(-c3cccc(NC(=O)C4CC4)c3)c2n1 (stereo partly shown) [ZX-HYT-61] | – | – | – | – |
| 0.0551 ± 0.0232 | – | – | 0.0487 ± 0.004 | – | – | 18.8 | 28.4 | 15.1 | COc1cc(N2CCN(CCCCCCCCNC(=O)C3CC3)CC2)ccc1Nc1ncc2c(C)cc(=O)n(-c3cccc(NC(=O)C4CC4)c3)c2n1 [ZX-HYT-62] | – | – | – | – |

| Molecule | IC50 (H1975; [1]) [µM] | IC50 (PC-9) [µM] | IC50 (HCC827) [µM] | IC50 (H1975OR) [µM] | IC50 (H1299) [µM] | IC50 (A431) [µM] | Dmax at 1 µM (AKT3) [%] | Dmax at 1 µM (AKT1) [%] | Dmax at 1 µM (AKT2) [%] | IC50 (H1975; H1975 cells) [µM] | Dmax (%) at 1000 nM AKT3 (AKT3) [%] | Dmax (%) at 1000 nM AKT1 (AKT1) [%] | Dmax (%) at 1000 nM AKT2 (AKT2) [%] |
| --- | --- | --- | --- | --- | --- | --- | --- | --- | --- | --- | --- | --- | --- |
| N-(3-(2-((4-(4-(12-((2-((3R, 5R, 7R)-adamantan-1-yl) ethyl) amino) dodecyl) piperazin-1-yl)-2-methoxyphenyl) amino)-5-methyl-7-oxypyrano [2,3-d] pyrimidin-8 (7H)-yl) phenyl) cyclopropane formamide [ZX-HYT-29] | – | – | – | 0.98 ± 0.25 | – | – | – | – | – | 0.98 ± 0.21 | 54.7 | 57.51 | 36.43 |
